# Measured values as given in patent US7342137B1, “Cyclohexenone compounds from Antrodia camphorata and application thereof” (Golden Biotechnology Corporation, priority 2007, dated 2008).
# Experiments:
# Type in all cases: cell-based
# [1] = system: human breast-cancer cells, MCF-7; experiment: In vitro survival assay (MTT), breast cancer cells MCF-7; details: MCF7, 48 hours incubation
# Procedure: (§1) The NCI anti-cancer drug screen model was adopted to test the anti-cancer effect of the compound from example 1 in the invention. The isolated compound of 4-hydroxy-2,3-dimethoxy-6-methyl-5(3,7,11-trimethyl-dodeca-2,6,10-trienyl)-cyclohex-2-enone from example 1 was added into the culture media of human breast-cancer cells, MCF-7 or MDA-MB-231, for tumor cell survival assay. This assay can be tested with 3-[4,5-dimethylthiazol-2-yl]2,5-diphenyltetrazolium bromide (MTT) assay, which is commonly used to determine cell proliferation, percent of viable cells, and cytotoxicity. MTT is a yellow dye, which can be absorbed by the living cells and be reduced to purplish blue formazan crystals by succinate tetrazolium reductase in mitochondria. Formazan formation can therefore be used to assess and determine the survival rate of cells.
# (§2) The human breast-cancer cells, MCF-7 and MDA-MB-231 were separately cultivated in media containing fetal calf serum for 24 hours. The proliferated cells were washed once with PBS, then treated with 1× trypsin-EDTA and centrifuged at 1200 rpm for 5 minutes. The supernatant was discarded and the cell pellet was resuspended in 10 ml of fresh culture medium by gently shaking. The cells were placed in a 96-well plate. […] The plates were read on an ELISA reader at wavelength of 570 nm to determine the survival rates.
# [2] = system: human breast-cancer cells, MDA-MB-231; experiment: In vitro survival assay (MTT), breast cancer cells MDA-MB-231; details: 48 hours incubation
# Procedure: as §1, §2
# [3] = system: human breast-cancer cells, MDA-MB-231; experiment: In vitro Taxol add-on study (MTT), MDA-MB-231; details: Homo sapiens, 0.0017 μg/ml Taxol + formula 2
# Procedure: The experiment was also carried out according to NCI anti-cancer drug screen in vitro model. The human breast-cancer cells, MCF-7 and MDA-MB-231 were separately cultivated in media containing fetal calf serum for 24 hours. The proliferated cells were washed once with PBS, then treated with 1× trypsin-EDTA and centrifuged at 1200 rpm for 5 minutes. The supernatant was discarded and the cell pellet was resuspended in 10 ml of fresh culture medium by gently shaking. The cells were placed in a 96-well plate after 0.0017 μg/ml Taxol was added and treated for 72 hours. 4-hydroxy-2,3-dimethoxy-6-methyl-5(3,7,11-trimethyl-dodeca-2,6,10-trienyl)-cyclohex-2-enone obtained from example 1 were added respectively into each of the 96 wells at the following concentrations: 0 μg/ml (the control group); 30, 10, 3, 1, 0.3, 0.1 and 0.03 μg/ml (the experiment group). The cells were incubated at 37° C. in a 5% CO2 incubator for 48 hours. MTT was added in a concentration of 2.5 mg/ml into each well in dark and reacted for 4 hours, followed by the addition of 100 μl of lysis buffer to terminate the reaction. The plates were read on an ELISA reader at wavelength of 570 nm to determine the survival rates.
# [4] = system: human hepatic cancer cells, Hep 3B; experiment: In vitro Lovastatin add-on study (MTT), Hep 3B; details: Homo sapiens, Hep3B, 0.0043 μg/ml Lovastatin + formula 2
# Procedure: (§3) The experiment was also carried out according to NCI anti-cancer drug screen in vitro model. The human hepatic cancer cells, Hep 3B and Hep G2 and MDA-MB-231 were separately cultivated in media containing fetal calf serum for 24 hours. The proliferated cells were washed once with PBS, then treated with 1× trypsin-EDTA and centrifuged at 1200 rpm for 5 minutes. The supernatant was discarded and the cell pellet was resuspended in 10 ml of fresh culture medium by gently shaking. The Hep 3B cells were treated with 0.0043 μg/ml of Lovastatin for 72 hours and Hep G2 cells were treated with 0.0017 μg/ml of Taxol for 72 hours before placing in a 96-well plate. 4-hydroxy-2,3-dimethoxy-6-methyl-5(3,7,11-trimethyl-dodeca-2,6,10-trienyl)-cyclohex-2-enone obtained from example 1 were added respectively into each of the 96 wells at the following concentrations: 0 μg/ml (the control group); 30, 10, 3, 1, 0.3, 0.1 and 0.03 μg/ml (the experiment group). The cells were incubated at 37° C. in a 5% CO2 incubator for 48 hours. MTT was added in a concentration of 2.5 mg/ml into each well in dark and reacted for 4 hours, followed by the addition of 100 μl of lysis buffer to stop the reaction. The plates were read on an ELISA reader at wavelength of 570 nm to determine the survival rates.
# [5] = system: human prostate cancer cells, LNCaP; experiment: In vitro Taxol add-on study (MTT), prostate cancer cells LNCaP; details: Homo sapiens; LNCaP (0.0017 μg/ml Taxol + formula 2) as printed in Table 6
# Procedure: as §3, with “human prostate” for “human hepatic”, “cells, LNCaP” for “cells, Hep 3B”, “and DU-145” for “and Hep G2 and MDA-MB-231”, “The LNCaP cells were treated with 0.0017 μg/ml of Taxol for 72 hours and DU-145” for “The Hep 3B”, “0.0043” for “0.0043 μg/ml of Lovastatin for 72 hours and Hep G2 cells were treated with 0.0017”
smiles,measurement,setting,value
"COC1=C(OC)C(O)C(C/C=C(\C)CC/C=C(\C)CCC=C(C)C)C(C)C1=O (centres unmarked) [formula 2, 4-hydroxy-2,3-dimethoxy-6-methyl-5(3,7,11-trimethyl-dodeca-2,6,10-trienyl)-cyclohex-2-enone]",IC50,[1],0.852 µg/mL
same,IC50,[2],1.03 µg/mL
same,IC50,[3],0.011 µg/mL
same,IC50,[4],0.002 µg/mL
same,IC50,[5],0.961 µg/mL
